Laboratory results as given in patent publication US8133910B2, “Thiophene derivatives as S1P1/EDGE1 receptor agonists” (Actelion Pharmaceuticals Ltd., priority 2006, dated 2012).

Target: recombinant human S1P1 receptor (Homo sapiens, UniProt P21453)
Assay: GTPγS assay to determine EC50 values
Format: biochemical
Conditions: 35S-GTPγS binding, membrane preparations of CHO cells expressing recombinant human S1P1 receptor, pH 7.4
Procedure: GTPγS binding assays are performed in 96 well microtiter plates (Nunc, 442587) in a final volume of 200 μl, using membrane preparations of CHO cells expressing recombinant human S1P1 receptor. Assay conditions are 20 mM Hepes (Fluka, 54461), 100 mM NaCl (Fluka, 71378), 5 mM MgCl2 (Fluka, 63064), 0.1% BSA (Calbiochem, 126609), 1 μM GDP (Sigma, G-7127), 2.5% DMSO (Fluka, 41644), 50 pM ^35S-GTPγS (Amersham Biosciences, SJ1320). The pH is 7.4. Test compounds are dissolved and diluted in 100% DMSO and pre-incubated at room temperature for 30 min in 150 μl of the above assay buffer, in the absence of ^35S-GTPγS. After addition of 50 μl of ^35S-GTPγS, the assay is incubated for 1 h at rt. The assay is terminated by transfer of the reaction mixture to a Multiscreen plate (Millipore, MAHFC1H60) using a cell harvester from Packard Biosciences, and the plates are washed with ice-cold 10 mM Na2HPO4/NaH2PO4 (70%/30%), dried, sealed at the bottom and, after addition of 25 μl MicroScint20 (Packard Biosciences, order #6013621), sealed on the top. Membrane-bound ^35S-GTPγS is measured with a TopCount from Packard Biosciences.
EC50 is the concentration of agonist inducing 50% of the maximal specific ^35S-GTPγS binding. Specific binding is determined by subtracting non-specific binding from maximal binding. Maximal binding is the amount of cpm bound to the
Multiscreen plate in the presence of 10 μM of S1P. Non-specific binding is the amount of binding in the absence of an agonist in the assay.

Sequence of recombinant human S1P1 receptor (P21453 whole entry): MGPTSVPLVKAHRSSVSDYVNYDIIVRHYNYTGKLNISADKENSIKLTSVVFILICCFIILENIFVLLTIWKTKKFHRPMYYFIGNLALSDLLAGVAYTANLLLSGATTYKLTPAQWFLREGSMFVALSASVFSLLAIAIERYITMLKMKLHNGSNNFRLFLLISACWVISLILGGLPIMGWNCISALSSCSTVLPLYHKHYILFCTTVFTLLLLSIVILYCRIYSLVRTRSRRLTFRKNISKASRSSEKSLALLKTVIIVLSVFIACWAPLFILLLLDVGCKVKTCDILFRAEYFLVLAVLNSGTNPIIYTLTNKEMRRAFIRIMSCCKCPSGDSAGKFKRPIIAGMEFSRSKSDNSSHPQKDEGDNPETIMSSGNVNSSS

Point of comparison: Cc1cc(-c2nnc(-c3ccc(CC(C)C)s3)o2)cc(C)c1OCC(O)CNC(=O)CO (stereo not drawn) [Example 22, 2-hydroxy-N-(2-hydroxy-3-{4-[5-(5-isobutyl-thiophen-2-yl)-[1,3,4]oxadiazol-2-yl]-2,6-dimethyl-phenoxy}-propyl)-acetamide], EC50 2.8 nM. Against it:
- CCCc1ccc(-c2nc(-c3cc(C)c(OC[C@@H](O)CNC(=O)CO)c(CC)c3)no2)s1 [Example 28, (2S)—N-(3-{2-Ethyl-6-methyl-4-[5-(5-propyl-thiophen-2-yl)-[1,2,4]oxadiazol-3-yl]-phenoxy}-2-hydroxy-propyl)-2-hydroxy-acetamide] — within 1.5-fold, 2.4 nM
- Cc1cc(-c2noc(-c3ccc(CC(C)C)s3)n2)cc(C)c1OCC(O)CNC(=O)CO (stereo not drawn) [Example 16] — within 1.5-fold, 2.6 nM
- Cc1cc(-c2nnc(-c3ccc(CC(C)C)s3)o2)cc(C)c1OC[C@@H](O)CNC(=O)CO [Example 31, 2-hydroxy-N-((2S)-2-hydroxy-3-{4-[5-(5-isobutyl-thiophen-2-yl)-[1,3,4]oxadiazol-2-yl]-2,6-dimethyl-phenoxy}-propyl)-acetamide] — within 1.5-fold, 3.3 nM
- CCCc1ccc(-c2nc(-c3cc(C)c(OC[C@H](O)CNC(=O)CO)c(C)c3)no2)s1 [Example 17, (2R)—N-(3-{2,6-Dimethyl-4-[5-(5-propyl-thiophen-2-yl)-[1,2,4]oxadiazol-3-yl]-phenoxy}-2-hydroxy-propyl)-2-hydroxy-acetamide] — 4.7-fold lower, 0.6 nM
- CCc1cc(-c2nnc(-c3cc(C)c(CC(C)C)s3)o2)cc(C)c1OC[C@@H](O)CNC(=O)CO [Example 42, N-((2S)-3-{2-Ethyl-4-[5-(5-isobutyl-4-methyl-thiophen-2-yl)-[1,3,4]oxadiazol-2-yl]-6-methyl-phenoxy}-2-hydroxy-propyl)-2-hydroxy-acetamide] — 4.7-fold lower, 0.6 nM

Test system: circulating lymphocytes
Assay: Assessment of in vivo efficacy: circulating lymphocytes after oral administration
Conditions: 6 h after oral administration of 10 mg/kg to normotensive male Wistar rats, as compared to vehicle group; mean±SEM
Procedure: The efficacy of the compounds of Formula (I) is assessed by measuring the circulating lymphocytes after oral administration of 3 to 30 mg/kg of a compound of Formula (I) to normotensive male Wistar rats. The animals are housed in climate-controlled conditions with a 12 h-light/dark cycle, and have free access to normal rat chow and drinking water. Blood is collected before and 3, 6 and 24 h after drug administration. Full blood is subjected to hematology using Advia Hematology system (Bayer Diagnostics, Zürich, Switzerland).
All data are presented as mean±SEM. Statistical analyses are performed by analysis of variance (ANOVA) using Statistica (StatSoft) and the Student-Newman-Keuls procedure for multiple comparisons. The null hypothesis is rejected when p<0.05.

Point of comparison: CCc1cc(-c2nnc(-c3ccc(CC(C)C)s3)o2)cc(C)c1OC[C@@H](O)CNC(=O)CO [Example 37, N-((2S)-3-{2-Ethyl-6-methyl-4-[5-(5-isobutyl-thiophen-2-yl)-[1,3,4]oxadiazol-2-yl]-phenoxy}-2-hydroxy-propyl)-2-hydroxy-acetamide], Lymphocyte counts −67 ± 3%. Against it:
- CCc1cc(-c2nnc(-c3cc(C)c(CC(C)C)s3)o2)cc(C)c1OC[C@@H](O)CO [Example 40, (2S)-3-{2-Ethyl-4-[5-(5-isobutyl-4-methyl-thiophen-2-yl)-[1,3,4]oxadiazol-2-yl]-6-methyl-phenoxy}-propane-1,2-diol] — higher, −58 ± 3%
- CCCc1ccc(-c2nc(-c3cc(C)c(OC[C@H](O)CNC(=O)CO)c(C)c3)no2)s1 [Example 17, (2R)—N-(3-{2,6-Dimethyl-4-[5-(5-propyl-thiophen-2-yl)-[1,2,4]oxadiazol-3-yl]-phenoxy}-2-hydroxy-propyl)-2-hydroxy-acetamide] — higher, −59. ± 4%
